Measured values from US8071345B2, “Stabilized subtilisin composition” (Novozymes A/S, priority 2006, dated 2011).
Read-outs that look alike come from different tables or passages of the source.

Legend:
Savinase = biological target: T1, Savinase (Lederbergia lenta, UniProt P29600); experiment: biochemical
T1 construct: Novozymes A/S
T1 sequence (P29600 1-269): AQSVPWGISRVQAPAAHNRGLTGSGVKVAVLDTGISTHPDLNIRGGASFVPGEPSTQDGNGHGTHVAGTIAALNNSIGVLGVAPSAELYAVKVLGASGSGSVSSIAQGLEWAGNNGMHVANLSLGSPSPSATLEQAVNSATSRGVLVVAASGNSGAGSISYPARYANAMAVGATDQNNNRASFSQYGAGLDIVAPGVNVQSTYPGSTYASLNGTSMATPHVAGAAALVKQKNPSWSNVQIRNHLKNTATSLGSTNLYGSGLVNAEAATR
Procedure: The inhibition constant KI=[E][I]/[EI] for the inhibition of Savinase was determined using standard methods under the following conditions:
Substrate: Succinyl-Alanine-Alanine-Proline-para-nitro-anilide=SAAPFpNA (Sigma S-7388).
Buffer: 0.1 M phosphate buffer pH 7.5
Enzyme concentration in assay≈1×10^−8 M
The initial rate of substrate hydrolysis was determined with and without inhibitor at nine substrate concentrations in the range of 0.01 mM to 2 mM using an automated spectrophotometer.
The inhibition constant KI was determined using Sigma Plot 9.0, Enzyme Kinetics Module 1.1

subtilisin = subtilisin (Bacillus licheniformis, UniProt P00780); details: Keller et al, Biochem. Biophys. Res. Com. 176, 1991; cited from earlier work
Chain of subtilisin (P00780 106-379): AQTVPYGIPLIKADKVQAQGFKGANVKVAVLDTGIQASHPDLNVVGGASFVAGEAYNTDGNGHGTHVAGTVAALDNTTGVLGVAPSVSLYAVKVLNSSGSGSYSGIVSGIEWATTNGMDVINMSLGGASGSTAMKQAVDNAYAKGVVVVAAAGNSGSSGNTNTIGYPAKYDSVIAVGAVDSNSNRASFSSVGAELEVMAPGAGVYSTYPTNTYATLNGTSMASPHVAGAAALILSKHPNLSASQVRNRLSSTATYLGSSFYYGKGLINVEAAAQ

proteolytic enzymes = details: as claimed in WO 92/19707; cited from earlier work
[1] = Example 2, acids, 0.1 M phosphate buffer pH 7.5, 25° C., substrate SAAPFpNA 0.01-2 mM, enzyme ≈1×10^−8 M, read-out: Ki
[2] = Example 1, 0.1 M phosphate buffer pH 7.5, 25° C., substrate SAAPFpNA 0.01-2 mM, enzyme ≈1×10^−8 M, read-out: Ki

SMILES | Ki (Savinase; [1]) [mM] | other results
Nc1ccccc1C(=O)O [2-aminobenzoic acid] | – | Ki (Savinase): 16 mM
O=C(O)c1ccccc1Cl [2-chlorobenzoic acid] | 16 | –
O=C(O)Cc1ccccc1Cl [2-chlorophenylacetic acid] | – | Ki (Savinase): 11 mM
O=Cc1ccc(O)c(O)c1 [3,4-dihydrozybenzaldehyde] | – | Ki (Savinase): 11 mM
OB(O)c1cc(Cl)cc(Cl)c1 [3,5-dichlorophenylboronic acid] | – | capacity as subtilisin inhibitor (subtilisin): particularly effective
O=C(O)c1cc(Cl)cc(Cl)c1 [3,5-dichorobenzoic acid] | – | Ki (Savinase; [2]): 2 mM
O=C(O)c1cc(O)cc(O)c1 [3,5-dihydroxybenzoic acid] | 76 | –
O=C(O)CCc1cccc(Cl)c1 [3-(3-chlorophenyl)propionic acid] | 5 | –
O=C(O)CCc1ccc(Cl)cc1 [3-(4-chlorophenyl)propionic acid] | 10 | –
O=C(O)c1cccc(CCl)c1 [3-(chloromethyl)benzoic acid] | 32 | –
Nc1cccc(C(=O)O)c1 [3-aminobenzoic acid] | 43 | –
O=C(O)c1cccc(Cl)c1 [3-chlorobenzoic acid] | – | Ki (Savinase): 4 mM
O=C(O)Cc1cccc(Cl)c1 [3-chlorophenylacetic acid] | – | Ki (Savinase): 7 mM
O=Cc1cccc(O)c1 [3-hydroxybenzaldehyde] | – | Ki (Savinase; Example 3, aldehydes, 0.1 M phosphate buffer pH 7.5, 25° C., substrate SAAPFpNA 0.01-2 mM, enzyme ≈1×10^−8 M, read-out: Ki): 16 mM
O=Cc1ccc(C(=O)O)cc1 [4-formylbenzoic acid] | – | Ki (Savinase; [2]): 25 mM
O=C(O)c1ccccc1 [Benzoic Acid] | – | Ki (Savinase): 22 mM
O=C(O)Cc1ccccc1 [Phenylacetic acid] | – | Ki (Savinase): 10 mM
O=C(O)CCc1ccccc1 [Phenylpropionic acid] | – | Ki (Savinase; [2]): 9 mM
O=C(O)c1ccc(C(=O)O)cc1 [Terephtalic acid (4-carboxybenzoic acid)] | – | Ki (Savinase; [2]): 99 mM
CC(=O)Nc1cccc(B(O)O)c1 [acetamidophenyl boronic acid] | – | inhibitor of proteolytic enzymes (proteolytic enzymes): superior inhibitor
CB(O)O [methylboronic acid] | – | capacity as subtilisin inhibitor (subtilisin): poorest inhibitor

More lines, main results first:

Ki (Savinase; [1]) [mM] | SMILES | other results
6 | O=C(O)c1cccc(Br)c1 [3-bromobenzoic acid] | –
17 | O=C(O)c1cccc(F)c1 [3-fluorobenzoic acid] | –
27 | O=Cc1cccc(C(=O)O)c1 [3-formylbenzoic acid] | –
29 | O=C(O)c1cccc(O)c1 [3-hydroxybenzoic acid] | –
9 | O=C(O)c1cccc(I)c1 [3-iodobenzoic acid] | –
9 | O=C(O)c1cccc([N+](=O)[O-])c1 [3-nitrobenzoic acid] | –
82 | Nc1ccc(C(=O)O)cc1 [4-aminobenzoic acid] | –
11 | O=C(O)Cc1ccc(Cl)cc1 [4-chlorophenylacetic acid] | –
19 | O=C(O)CCCc1ccccc1 [4-phenylbutyric acid] | –
